Experimental data taken from patent publication US10555687B2, “Apparatus and method for physiologic and pharmacodynamic assessment and monitoring” (priority 2015, dated 2020).

Test system: Aβ fiber
Test: PRD pharmacological assessment of sciatic nerve pain
Format: in vivo, human
Description: According to one embodiment, the neuro-stimulator can be integrated with a smartphone, thereby allowing for the detection of mechanism specific nociception via recording and parameterization of the PRD under a multitude of conditions. Parameterization of the PRD curve includes two static measures: a pupillary baseline and peak dilation diameters (dilation amplitude or DA), and at least three dynamic measures: slopes of the ascending and descending portions of the PRD curve representing the dilation velocity (DV) and recovery velocity, as well as the duration of the reflex, and the area under the curve representing pain sensitivity/intensity.
By one embodiment, large-fiber neuropathic pain is transmitted via Aβ nerve fiber type, which is stimulated at 2000 Hz. Neuropathic pain is detected and measured by examining the relationship of the parameters of the PRD to a 2000 Hz stimulus. Small fiber neuropathic pain is transmitted via C-fiber and Aδ fibers, and is often seen with metabolic disorders such as diabetes or chemotherapy induced neuropathic pain. The neuropathic pain index (NPI) integrates the intensity stimulus (mA) relative to the DV, DA, AUC and recovery time. Accordingly, neuropathic pain can be defined with respect to whether the pain is a small fiber based pain or a large fiber based pain. Moreover the NPI provisions for flexibility of monitoring an intervention. […]

SMILES: NCC1(CC(=O)O)CCCCC1 [Gabapentin]
- pain sensitivity (PRD) in sciatic nerve pain (compression of the Aβ fiber, large fiber neuropathic pain (FIG. 8B)): diminishes the pain sensitivity
- area under the PRD curve compared with opioid intervention (sciatic nerve pain (FIG. 8B)): substantially smaller
